Entries after “also recorded” stand apart in the source; their conditions may differ. Where a SMILES comes first, the peptide text is derived from it. The star is where a group is joined. Cbz = O=C(OCc1ccccc1)*
Tests used:
[1] = tested on: human RA myocytes; assay: Action potential duration (APD) and APD rate adaptation in isolated human right atrial myocytes; format: cell-based
Source text: All abbreviations are as defined in FIG. 1.
9b. […] Representative AP traces in RA myocytes from patients in SR exposed to 2 doses of 4-AP in the presence or absence of nNOS inhibition with SMTC.
A shorter APD leads to reduced atrial refractoriness and promote AF sustainability. […] These findings indicate that loss of myocardial nNOS signalling is sufficient to produce an atrial electrical substrate that increases both the inducibility and maintenance of AF.

[2] = tested on: nNOS protein; assay: nNOS protein in human atrial tissue in AF after inhibition of the proteosomal system or autophagy; format: cell-based; settings: human RA, MG132 5 μmol/L, bafilomycin 25 nmol/L
Description: In the presence of AF, ubiquitination of nNOS protein is increased in human atrial tissue as shown by immunoprecipitation. Protein load of AF samples was increased to match the nNOS content to that seen in SR; n=6 (a). […] All abbreviations are as defined in FIG. 1.
In the skeletal muscle, nNOS protein stability is determined by the enzyme's anchoring to the dystrophin-syntrophin complex. We found a reduction in dystrophin (FIG. 4c, 4d, 4f) and dystrophin-associated proteins (e.g., caveolin-3 and α1-syntrophin, 4c, 4e), and a disruption of the dystrophin-nNOS complex in AF (FIG. 4a, 4b). In humans, atrial nNOS and dystrophin were strongly correlated (FIG. 4g), in keeping with the notion that disruption of the dystrophin-syntrophin complex promotes ubiquitin-dependent nNOS degradation in AF.

[3] = tested on: dystrophin (DYS) protein; assay: Dystrophin protein content (immunoblot) in transfected human atrial myocytes; format: cell-based
[4] = tested on: nNOS protein; assay: nNOS protein content (immunoblot) in transfected human atrial myocytes; format: cell-based
Source text: (§1) RQ—relative quantification, DYS—dystrophin; all other abbreviations are as defined in FIG. 1.
(§2) By contrast, treatment with miR31 mimic has no effect on the DYS mRNA in either SR (n=12) or AF (n=10). *P<0.05, **P<0.01 ***P<0.001 vs controls in SR and #P<0.05, ##P[…], ###P<0.001 vs negative control (NC) using 1-way ANOVA with Bonferroni correction. Dystrophin and nNOS gene expression were normalized to GAPDH.
(§3) 12g-m. […] By contrast, miR31 mimic has no effect on the decay of the DYS mRNA (h).

[5] = tested on: DYS mRNA; assay: DYS mRNA (gene expression) in transfected human atrial myocytes; format: cell-based; settings: for DYS mRNA (expression): SR myocytes, mimic 10 nM, 72 hours (FIG. 10)
Source text: as §2, §3

[6] = tested on: nNOS mRNA; assay: nNOS mRNA (gene expression) in transfected human atrial myocytes; format: cell-based
Source text: as §2, §3

[7] = tested on: nNOS mRNA on the RISC complex; assay: Ribonucleoprotein immunoprecipitation with Ago2 (RISC), nNOS mRNA; format: cell-based, human; settings: RA myocytes from AF patients; TSB 20 nM, 48-72 hours; normalized to miR31 in RISC
Description: 12a-b. (a) Immunoprecipitation of the RNA-induced silencing effector complex (RISC) protein, Argonaut 2 (Ago2) in RAA myocytes isolated from patients with AF transiently (48-72 hours) transfected with 20 nM of an locked nucleic acids (LNA)-based miR31 target site blocker (TSB, Exiqon) or with corresponding scrambled control (scr, 20 nM, Exiqon). Further details on the sequence of the TSB and scr control, also see FIG. 13). Molecular weight is shown in kilodalton (kDa); Rb IgG—rabbit immunoglobulin G (as negative control); IP—immunoprecipitation, IB—immunoblotting. (b) miR31 expression is unchanged in Ago2 immunoprecipitates from RAA human myocytes.
12c-f. (c) Sequence of the mature human miR31 (hsa-miR31), 23-nucleotide region of the human DYS-3′UTR, the miR31 hairpin inhibitor (anti-miR31, miRIDIAN, Dharmacon) and the 18-nucleotide-long locked nucleic acids (LNA)-based Target Site Blocker (TSB) covering the miR31-binding site on the DYS-3′UTR (TSB_DYS). (d) Sequences of the mature hsa-miR-31, 23-nucleotide region of the human nNOS-3′UTR, the anti-miR31 (miRIDIAN, Dharmacon) and the 18-nucleotide-long TSB covering the miR31-binding site on the nNOS 3′UTR (TSB_nNOS). The miR-31 seed sequence is in grey. […]
(§4) The corresponding mRNA stability was assessed in the presence of a miR-31 mimic (10 nM) in SR myocytes treated with the transcription inhibitor, actinomycin D (5 μg/ml).

[8] = tested on: miR-31; assay: miR-31 expression in transfected isolated human atrial myocytes; format: cell-based; settings: for miR31 levels: RAA myocytes; for miR-31 expression: 20 nM, 48-72 hours
Source text: as §1
8a. […] Data are expressed as fold change to the controls in SR.
as §2
We hypothesised that a microRNA-mediated translational repression of dystrophin in AF may account for the loss of myocardial nNOS and constitute a novel mechanism underlying AF-induced electrical remodelling.

[9] = tested on: human nNOS 3′UTR; assay: GFP reporter assay in HEK293 cells, nNOS 3′UTR constructs; format: cell-based; settings: HEK293, co-transfected 48 hours, mimic 10 nM
Description: 11a. Predicted conserved (site 1) and poorly conserved (sites 2, 3, 4 and 5) miR31-5p binding sites on the human nNOS 3′UTR.
11b. HEK293 cells were co-transfected (48 hours) with reporter constructs containing 2 fragments (˜500 bp) of the nNOS 3′UTR region containing the mir31 binding putative sites (Part1, site 1 & 2 and Part2, sites 3, 4 & 5) and a miR31 mimic (10 nM, miRIDIAN, Dharmacon). […] Further analysis of Part 2, identified site 5 as the functional mir31 site on the nNOS 3′ UTR.

[10] = tested on: DYS 3′UTR; assay: GFP reporter assay in HEK293 cells, DYS 3′UTR construct; format: cell-based, human; settings: HEK293, co-transfected 48 hours
Description: 11c. HEK293 cells were co-transfected (48 hours) with reporter constructs containing the DYS 3′UTR region containing the mir31 binding putative site. […] Reporter assays were performed in triplicates and are representative of at least 3 independent experiments. ###P<0.001 vs vehicle, repeated-measure ANOVA with Bonferroni correction.

[11] = tested on: nNOS mRNA; assay: nNOS mRNA stability in the presence of actinomycin D; format: cell-based, human; settings: SR myocytes; actinomycin D 5 μg/ml; mimic 10 nM
Description: as §3, §4

[12] = tested on: DYS mRNA; assay: DYS mRNA stability in the presence of actinomycin D; format: cell-based, human; settings: SR myocytes; actinomycin D 5 μg/ml; mimic 10 nM; listed as miR31 mimic
Description: as §3, §4

[13] = myocytes from patients with AF, 20 nM, 48-72 hours
[14] = myocytes from patients with AF, 20 nM, 48-72 hours, listed as nNOS-TSB
[15] = SR myocytes, mimic 10 nM, 72 hours
[16] = SR myocytes, mimic 10 nM, 72 hours (FIG. 10), listed as miR31 mimic
[17] = SR myocytes, mimic 10 nM, 72 hours (FIG. 10), listed as miRIDIAN miR-31 mimic
[18] = myocytes from patients in SR, 20 nM, 48-72 hours

Molecule: Nc1ccncc1 [4-AP]
- APD ([1]; RA myocytes from patients in SR, 2 doses of 4-AP (100 and 500)): prolong APD
- difference in APD induced by SMTC ([1]; RA myocytes from patients in SR, 4-AP 100 and 500, with or without SMTC): abolish the difference in APD induced by SMTC
- APD rate dependent adaptation ([1]; human RA myocytes, 4-AP): restores the APD rate dependent adaptation

Molecule: CC(C)C[C@@H](C=O)NC(=O)[C@H](CC(C)C)NC(=O)[C@H](CC(C)C)NC(=O)OCc1ccccc1 [MG132] (Cbz-Leu-Leu-Leu-aldehyde)
- nNOS protein content [2]: partially restores nNOS protein; also recorded: partially restored nNOS content

Molecule: CO/C1=C\C(C)=C\[C@@H](C)[C@@H](O)[C@@H](C)C/C(C)=C/C=C/[C@H](OC)[C@@H]([C@@H](C)[C@@H](O)[C@H](C)[C@@]2(O)C[C@@H](O)[C@H](C)[C@@H](C(C)C)O2)OC1=O [bafilomycin A1]
- nNOS protein content ([2]; listed as bafilomycin): had no effect

Molecule: TSB_nNOS: 18-nucleotide-long TSB covering the miR31-binding site on the nNOS 3′UTR (LNA-based, Exiqon) (DNA TGGCAAGAATGAAAAGGC; LNA-based target site blocker, LNA pattern not given here)
- dystrophin (DYS) protein content [3, 13]: without affecting
- nNOS protein content [4, 13]: partially recovered nNOS protein
- nNOS protein content [4, 14]: recovered nNOS
- DYS mRNA [5, 13]: without affecting
- nNOS mRNA (gene expression) [6, 13]: increased nNOS mRNA
- nNOS mRNA (gene expression) [6, 14]: significantly increased
- loading of nNOS mRNA on the RISC complex (Ago2 immunoprecipitation) [7]: selectively prevented loading; also recorded: reduction

Molecule: miR-31 mimic: miRIDIAN miR-31 mimic (Dharmacon) (AGGCAAGATGCTGGCATAGCT; listed as DNA, chemistry not given here)
- APD [1, 15]: shortened APD
- APD rate-dependent adaptation [1, 15]: abolished the APD rate-dependent adaptation
- miR31 levels ([8]; AF, mimic (FIG. 10)): increases mir31 levels
- miR31 levels ([8]; SR, mimic 10 nM, 72 hours (FIG. 10)): increases mir31 levels
- miR-31 expression ([8]; myocytes from patients in SR): upregulation of miR-31
- miR-31 expression ([8]; myocytes from patients with AF): upregulation of miR-31
- dystrophin protein ([3]; AF myocytes, mimic (FIG. 10)): reduces
- dystrophin (DYS) protein content [3, 16]: reduces
- dystrophin (DYS) protein content [3, 17]: reduced
- dystrophin (DYS) protein content [3, 18]: dramatically reduced
- dystrophin (DYS) protein content [3, 13]: dramatically reduced
- nNOS protein ([4]; AF myocytes, mimic (FIG. 10)): reduces
- nNOS protein content [4, 16]: reduces
- nNOS protein content [4, 17]: reduced
- nNOS protein content [4, 18]: dramatically reduced
- nNOS protein content [4, 13]: dramatically reduced
- DYS mRNA ([5]; AF myocytes, mimic (FIG. 10)): has no effect
- DYS mRNA (expression) ([5]; listed as miR31 mimic): has no effect
- DYS mRNA (expression) ([5]; listed as miRIDIAN miR-31 mimic): without affecting
- nNOS gene expression ([6]; AF myocytes, mimic (FIG. 10)): reduces
- nNOS mRNA (gene expression) [6, 16]: reduces
- nNOS mRNA (gene expression) [6, 17]: reduced
- GFP fluorescence, wild type (WT) Part 2 nNOS 3′UTR construct [9]: reduction in miR31-mediated GFP fluorescence
- reduction in GFP fluorescence, mutated (Mut) nNOS 3′UTR constructs lacking miR31 binding site [9]: abolished
- GFP fluorescence, wild type (WT) DYS 3′UTR construct [10]: reduction in miR31-mediated GFP fluorescence
- reduction in GFP fluorescence, mutated (Mut) DYS 3′UTR constructs lacking miR31 binding site [10]: abolished
- decay of nNOS mRNA [11]: accelerated the decay of nNOS mRNA
- decay of DYS mRNA [12]: has no effect

From patent US20160108431A1, “PREVENTION AND TREATMENT OF ATRIAL FIBRILLATION” (ISIS INNOVATION LIMITED, priority 2013, published 2016)
